The results in this text go back to patent US20060286167A1, “Compositions and methods for the treatment of neurodegenerative diseases” (priority 2005, published 2006).

Where a name gives a salt, the structure may show the parent alone. Where no end group is shown, it is not given here.

The test system of one assay is SMN protein in SMA patient fibroblasts (GM03813). The assay can be described thus: SMN cytoblot assay (SMN protein levels in SMA patient fibroblasts). In kind it is cell-based, human.
Conditions: not given
The text has this: One method for monitoring SMN protein levels in cells is through use of a cytoblot assay, in which cells are fixed and probed with an antibody against a target protein of interest. We have used a cytoblot assay to determine the concentration of SMN protein in SMA patient fibroblasts, and have identified small molecules that increase SMN protein concentration.
Using the cytoblot assay, we can clearly distinguish SMN protein levels in patient (GM03813) versus carrier fibroblast cells (GM03814), as shown in the FIGS. 1A and 1B.
• 1. Plate 50 μl per well of 300,000 cells/ml (15,000 cells per well) into Nunc white 384-well opaque-bottomed plates. • 2. Incubate plates at 37° C., 5% CO2 overnight. Day 2 • 1. Aspirate media from wells using Tecan plate washer. • 2. Fix cells by adding 20 μl/well of cold methanol (kept in −20° C. freezer). • 3. Incubate plates in 4° C. refrigerator for 10 minutes. • 4. Aspirate methanol using Tecan plate washer. • 5. Add 50 μl/well of primary Ab solution, (BD anti-SMN Ab diluted to 125 ng/ml in 10% fetal goat serum PBST), using multi-drop. • 6. Seal plates and incubate overnight at room temperature. Day 3 • 1. After 16-20 hrs incubation, wash plates with PBST 2× using Tecan plate washer. • 2. Add 50 μl of secondary Ab solution, (Santa Cruz goat anti-Mouse-HRP diluted to 67 ng/ml in 10% fetal goat serum PBST). • 3. Seal plates and incubate 2 hrs at room temperature. • 4. Wash plates with PBST 2× using Tecan plate washer. • 5. Add 50 μl/well 10% fetal goat serum PBST. • 6. Incubate in 4° C. refrigerator for 10 minutes. • 7. Aspirate plates using plate washer and add ECL luminescence solution, 20 μl/well. • 8. Measure luminescence on plate reader. Automated Scoring
We scored each compound based on the maximum signal-to-noise ratio (SNR) found among its dose curves. These scores are based on edge-corrected SMN data, using only plates that passed quality control. The untreated level on each plate was found by taking the median of the untreated wells, and for each treated well we calculated a log(T/U) ratio. Each curve was generated in triplicate on each plate, so each point on a compound's dose curve was obtained by determining the median for the replicate points. Each ratio thus has an error estimate from the scatter between the triplicate data points (1.5 times the median absolute deviation from the median). For each dose curve, we calculated the SNR for each data point log(T/U)/error, and chose the maximum point as our indicator of SMN induction activity. Since this is a signal-to-noise score, scores much greater than one indicate significant activity, assuming normal statistics. We decided to use a cutoff signal-to-noise ratio of 6. This selection represents a considerable enrichment towards visually-selected compounds. We identified 100 out of 2000 compounds producing scores >6. This included 13 of the 28 visual selections.
In the case of `[Ca+2].[Cl-].[Cl-]` [Calcium Chloride], the SNR is reported as 7.63. Ferric Ammonium Citrate came in with an SNR of 19.4. Regarding `O=S(=O)([O-])[O-].[Mn+2]` [Manganese Sulfate], the SNR amounted to 10.3. Still for that read-out and setting: as for Ferrous Sulfate, the figure is 7.55.

The assay is the same for the next values; noted with them: maximum signal-to-noise ratio log(T/U)/error among a compound's dose curves, SMN cytoblot; cutoff 6; column Scoring says Automated or Visual selection.
In the case of Gentamicin Sulfate, the SNR is recorded as 14.9. Same read-out and setting: as for `CN(C)C(=O)Oc1ccc[n+](C)c1` [Pyridostigmine Bromide], the figure is 6.19; as for `CCCCCC/C=C\CCCCCCCC(=O)OC` [Methyl Palmitoleate], 9.63; as for `CN(C)[C@@H]1C(O)=C(C(N)=O)C(=O)[C@@]2(O)C(O)=C3C(=O)c4c(O)ccc(Cl)c4[C@@](C)(O)[C@H]3C[C@@H]12` [Chlortetracycline Hydrochloride], 10.4. As to `CC(=O)Nc1c(I)cc(I)c(C(=O)O)c1I` [Acetrizoate Sodium], the SNR is given as 12.8. On the same count and under the same terms, next, `NCC1(CC(=O)O)CCCCC1` [Gabapentin]: 6.84; `NCCc1c[nH]c2ccc(O)cc12` [Serotonin]: 6.15. On to `CCCC(CCC)C(=O)O[C@H]1C[C@H]2CC[C@@H](C1)[N+]2(C)C` [Anisotropine Methylbromide], for which the SNR was 6.43.

Regarding `NC[C@@H]1O[C@H](O[C@H]2[C@@H](O)[C@H](O[C@@H]3[C@@H](O)[C@H](N)C[C@H](N)[C@H]3O[C@H]3O[C@H](CN)[C@@H](O)[C@H](O)[C@H]3N)O[C@@H]2CO)[C@H](N)[C@@H](O)[C@@H]1O` [Framycetin], the SNR is 13.3.

In the case of `[Cl][Cu][Cl]` [Cupric Chloride], the SNR is on record as 12.1. Still for that read-out and setting: as for `C=CCSSCC=C` [Allyl Disulfide], the figure is 9.08; as for `CCCCCC(Br)C(=O)O` (stereo not drawn) [alpha-Bromohepyanoic acid], 8.41; as for `O=C(O)[C@H](O)[C@@H](O)C(=O)O` [L-Tartaric acid], 6.92. Turning to `CCN(CC)C(C)CN1c2ccccc2Sc2ccccc21` (stereo not shown) [Ethopropazine Hydrochloride], the SNR was determined as 9.61. Still for that read-out and setting: as for `CC(C)NCC(O)COc1ccc(CCOCC2CC2)cc1` (stereo not shown) [Betaxolol Hydrochloride], the figure is 7.21; as for “[2-(hexahydro-1 (2H)-azocinyl)ethyl]guanidine [Guanethidine Monosulfate]”, 11.3. Still for that read-out and setting: as for `C=C(C)C1CCC(C)CC1OC(C)=O` (stereo not shown) [Isopulegol acetate], the figure is 11.4. On the same count and under the same terms, next, `CC(C)CCCC(C)CCCC(C)CCCCC(C)CCCC(C)CCCC(C)C` (stereo not shown) [Hexamethyltetracosane]: 6.64. Turning to `CC(=O)N1C[C@H](O)C[C@H]1C(=O)O` [Oxaceprol], the SNR is 10.6. On the same count and under the same terms, next, `CCN(CC)CCNC(=O)c1cc(S(C)(=O)=O)ccc1OC` [Tiapride]: 10.5. Still for that read-out and setting: as for Teicoplanin, the figure is 9.72; as for `CC[C@]12CCCN3CCc4c(n(c5ccccc45)[C@@](O)(C(=O)OC)C1)[C@@H]32` [Vincamine], 6.94.

Regarding `CCCCc1cccs1` [2-n-Butylthiophene], the SNR turned out to be 8.96.

For the compound `CC1CCC(=CC(=O)O)CC1` (stereo not shown) [2-(4-methyl010cyclohexylidene) acetic acid], the SNR amounted to 6.16.

As to `O=C(O)c1ccccc1OP(=O)(O)O` [Fosfosal], the SNR was determined as 6.77.

Take `CC(CCc1ccc(O)cc1)NCCc1ccc(O)c(O)c1` (stereo not shown) [Dobutamine Hydrochloride]: the SNR came to 6.47. Same read-out and setting: next, `CCCCC/C=C\C/C=C\CCCCCCCC(=O)OC` [Methyl Linoleate]: 10.1; `CC[N+](CC)(CC)CCOc1cccc(OCC[N+](CC)(CC)CC)c1OCC[N+](CC)(CC)CC` [Gallamine Triethiodide]: 15.4; `CC(Cc1cccc(C(F)(F)F)c1)NCCOC(=O)c1ccccc1` (stereo not shown) [Benfluorex Hydrochloride]: 7.11. As to “Calcitonin (CGNLSTCMLGTYTQDFNKFHTFPQTAIGVGAP; ends and bridges not checked; cysteine pairing not given here; UniProt P01258 85-116, looked up)”, the SNR was found to be 7.46. Still for that read-out and setting: as for `CCOC(=O)[C@H](CCc1ccccc1)N[C@@H](C)C(=O)N1CCC[C@H]1C(=O)O` [Enalapril], the figure is 6.77; as for `O=C(N/N=C/c1ccc([N+](=O)[O-])o1)c1ccc(O)cc1` [Nifuroxazide], 6.96. With `CN(C)CCC(O)(c1ccccc1)c1ccccc1Cl` (stereo not shown) [Chlophedianol Hydrochloride], the SNR came to 7.44.

With `CN(CC(=O)O)C(=N)N` [Creatine], the SNR is 8.34. Consider `CS(=O)(=O)OCCCCOS(C)(=O)=O` [Busulfan], for which the SNR amounted to 17.4. Same read-out and setting: next, `CCCC(CCC)C(=O)O` [Divalproex Sodium]: 6.59; `CC(C)(S)C(N)C(=O)O` (racemic) [dl-Penicillamine]: 9.63; `CNC[C@H](O)c1ccc(O)c(O)c1` [Epinephrine Bitartrate]: 8.26. The same measure, in the same setting: as for `S=[Se]=S` [Selenium Sulfide], the figure is 7.08; as for `CC1CCC(C(C)C)C(O)C1` (stereo not shown) [Menthol], 7.87; as for `CC(C[N+](C)(C)C)OC(N)=O` (stereo not shown) [Bethanechol Chloride], 9.26. Same read-out and setting: next, Neomycin Sulfate: 7.96. For the compound `CCc1cc(C(N)=S)ccn1` [Ethionamide], the SNR stood at 14. Same read-out and setting: next, `CN(C)c1nc(N(C)C)nc(N(C)C)n1` [Altretamine]: 10.2. Turning to `CC1(C)S[C@@H]2[C@H](NC(=O)[C@H](NC(=O)N3CCNC3=O)c3ccccc3)C(=O)N2[C@H]1C(=O)O` [Azlocillin Sodium], the SNR worked out at 6.7. Take `COC(=O)[C@H]1[C@H]2C[C@@H]3c4[nH]c5cc(OC)ccc5c4CCN3C[C@H]2C[C@@H](OC(=O)/C=C/c2cc(OC)c(OC)c(OC)c2)[C@@H]1OC` [Rescinnamine]: the SNR is listed as 6.3. Turning to `CC(=O)OCC(=O)[C@H]1CC[C@H]2[C@@H]3CCC4=CC(=O)CC[C@]4(C)[C@H]3CC[C@]12C` [Desoxycorticosterone Acetate], the SNR came out at 7.41. Regarding `N=C(N)NC(=O)Cc1c(Cl)cccc1Cl` [Guanfacine Hydrochloride, (N-aminoiminomethyl)-2,6-dichlorobenzeneacetamide], the SNR was 7.24.

As for `CCn1nc(C(=O)O)c(=O)c2cc3c(cc21)OCO3` [Cinoxacin], the SNR amounted to 6. The same measure, in the same setting: as for `CC(C)(Oc1ccc(CCNC(=O)c2ccc(Cl)cc2)cc1)C(=O)O` [Bezafibrate], the figure is 7.38; as for Dibekacin Sulfate Salt, 6.79.

Turning to `O=C1Nc2ccc(Cl)cc2[C@@](C#CC2CC2)(C(F)(F)F)O1` [Efavirenz], the SNR was found to be 13.1. Same read-out and setting: as for `CN[C@@H]1[C@H](O)[C@H](NC)[C@H]2O[C@@]3(O)C(=O)C[C@@H](C)O[C@H]3O[C@@H]2[C@H]1O` [Spectinomycin], the figure is 11. On the same count and under the same terms, next, `C[C@H]1COc2c(C3(N)CC3)c(F)cc3c(=O)c(C(=O)O)cn1c23` [Pazufloxacin]: 7.83; `CC1=C(/C=C/C(C)O)C(C)(C)CCC1` (stereo not drawn) [Beta-Ionol]: 10.3; `CCCCC(CC)COC(=O)/C=C/C(=O)OCC(CC)CCCC` (stereo not shown) [Bis(2-Ethlyhexyl) Fumarate]: 7.33.

As to `NCC[C@H](O)C(=O)N[C@@H]1C[C@H](N)[C@@H](O[C@H]2O[C@H](CN)[C@@H](O)[C@H](O)[C@H]2O)[C@H](O)[C@H]1O[C@H]1O[C@H](CO)[C@@H](O)[C@H](N)[C@H]1O.O=S(=O)(O)O.O=S(=O)(O)O` [Amikacin Sulfate], the SNR came out at 7.7. Still for that read-out and setting: next, `CCC(=O)OCC(=O)[C@@]1(OC(=O)CC)[C@@H](C)C[C@H]2[C@@H]3CCC4=CC(=O)C=C[C@]4(C)[C@@]3(Cl)[C@@H](O)C[C@@]21C` [Beclomethasone Dipropionate]: 6.27. On to `CNCCNS(=O)(=O)c1cccc2cnccc12` [H-8], for which the SNR was found to be 9.52. Still for that read-out and setting: next, `COc1ccc(CC(C)=O)cc1OC` [3,4-Dimethoxyphenylacetone]: 7.25.
